Key:
[1] = patients who receive weekly docetaxel; cited from earlier work
[2] = Docetaxel plasma pharmacokinetics with and without tariquidar; type: in vivo, human; conditions: docetaxel 40 mg/m2, tariquidar 150 mg
ABCG2 = conditions: compared with Pgp; cited from earlier work
Pgp [3] = target: T1, Pgp (Homo sapiens, UniProt P08183); test: Rhodamine 123 efflux from CD56+ mononuclear cells of patients; type: cell-based
Pgp [4] = target: T1, Pgp; test: 99mTc-sestamibi scanning before and after tariquidar; type: in vivo; conditions: after tariquidar 150 mg vs baseline
MRP1 = conditions: cited from earlier work

T1 sequence (P08183 whole entry): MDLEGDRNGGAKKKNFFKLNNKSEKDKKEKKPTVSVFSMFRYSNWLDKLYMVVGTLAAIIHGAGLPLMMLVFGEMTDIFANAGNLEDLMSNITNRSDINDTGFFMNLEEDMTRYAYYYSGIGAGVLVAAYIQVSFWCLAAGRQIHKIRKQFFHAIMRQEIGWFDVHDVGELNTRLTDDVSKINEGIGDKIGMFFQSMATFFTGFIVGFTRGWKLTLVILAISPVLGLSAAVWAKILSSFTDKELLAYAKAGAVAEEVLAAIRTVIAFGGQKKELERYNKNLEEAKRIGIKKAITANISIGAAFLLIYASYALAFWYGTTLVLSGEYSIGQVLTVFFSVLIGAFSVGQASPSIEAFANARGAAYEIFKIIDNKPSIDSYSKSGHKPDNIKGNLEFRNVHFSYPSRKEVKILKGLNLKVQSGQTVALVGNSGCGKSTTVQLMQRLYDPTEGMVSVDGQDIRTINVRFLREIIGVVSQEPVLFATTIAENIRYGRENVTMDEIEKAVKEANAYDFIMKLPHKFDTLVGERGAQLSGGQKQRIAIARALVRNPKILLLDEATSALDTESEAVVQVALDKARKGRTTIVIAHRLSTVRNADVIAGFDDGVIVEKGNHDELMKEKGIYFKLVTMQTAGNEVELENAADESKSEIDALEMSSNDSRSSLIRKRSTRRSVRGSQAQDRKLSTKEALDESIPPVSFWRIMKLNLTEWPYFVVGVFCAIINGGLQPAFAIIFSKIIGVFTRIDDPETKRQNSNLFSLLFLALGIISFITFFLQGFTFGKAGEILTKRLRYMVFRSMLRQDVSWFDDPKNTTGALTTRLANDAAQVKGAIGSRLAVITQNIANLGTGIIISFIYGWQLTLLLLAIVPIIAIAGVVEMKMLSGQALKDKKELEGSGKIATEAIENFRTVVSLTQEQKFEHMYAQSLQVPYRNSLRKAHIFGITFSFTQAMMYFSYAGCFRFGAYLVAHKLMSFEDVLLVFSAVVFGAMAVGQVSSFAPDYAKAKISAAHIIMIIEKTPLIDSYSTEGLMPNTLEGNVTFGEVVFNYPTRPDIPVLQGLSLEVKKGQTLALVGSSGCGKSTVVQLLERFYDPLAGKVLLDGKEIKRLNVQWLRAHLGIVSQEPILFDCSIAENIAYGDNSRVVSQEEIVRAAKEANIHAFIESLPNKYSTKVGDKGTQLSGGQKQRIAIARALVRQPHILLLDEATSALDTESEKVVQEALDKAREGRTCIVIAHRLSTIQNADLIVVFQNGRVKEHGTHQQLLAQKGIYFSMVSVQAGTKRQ

Structure (SMILES): CC(=O)O[C@@]12CO[C@@H]1C[C@H](O)[C@@]1(C)C(=O)[C@H](O)C3=C(C)[C@@H](OC(=O)[C@H](O)[C@@H](NC(=O)OC(C)(C)C)c4ccccc4)C[C@@](O)([C@@H](OC(=O)c4ccccc4)[C@H]21)C3(C)C [docetaxel]
- epiphora secondary to canalicular stenosis, incidence [1]: 33-50%
- docetaxel disposition, pairwise comparison with and without tariquidar ([2]; AUC0-24 and Cmax): no significant difference
- geometric mean ratio of docetaxel AUC0-24 (with tariquidar/without tariquidar) ([2]; 31 patients, plasma): 1.07 (95% CI: 0.922-1.25)
- geometric mean ratio of docetaxel Cmax (with tariquidar/without tariquidar) ([2]; 31 patients, plasma): 0.907 (95% CI: 0.697-1.18)

Structure (SMILES): COc1cc2c(cc1OC)CN(CCc1ccc(NC(=O)c3cc(OC)c(OC)cc3NC(=O)c3cnc4ccccc4c3)cc1)CC2 [tariquidar]
- inhibition of ABCG2-mediated resistance in vitro (ABCG2): higher concentrations are required to inhibit ABCG2
- rhodamine efflux from CD56+ cells compared to Pre levels (Pgp [3]; 24 h after start of tariquidar 150 mg IV infusion, 41 patients): significantly decreased
- inhibition of Pgp in circulating mononuclear cells (Pgp [3]; tariquidar 150 mg IV): complete inhibition
- change in sestamibi AUC, liver (Pgp [4]; P<0.001): statistically significant change
- change in sestamibi AUC, visualized tumor tissue (Pgp [4]; P<0.001): statistically significant change
- change in sestamibi AUC0-3, cardiac tissue (Pgp [4]; two-tailed Student's t-test): No statistically significant increase
- change in sestamibi AUC0-3, lung tissue (Pgp [4]; two-tailed Student's t-test): No statistically significant increase
- inhibition of MRP1 (MRP1): does not inhibit

Structure (SMILES): C/C=C/C[C@@H](C)C(=O)[C@H]1C(=O)N[C@@H](C(C)C)C(=O)N(C)CC(=O)N(C)[C@@H](CC(C)C)C(=O)N[C@@H](C(C)C)C(=O)N(C)[C@@H](CC(C)C)C(=O)N[C@@H](C)C(=O)N[C@H](C)C(=O)N(C)[C@@H](CC(C)C)C(=O)N(C)[C@@H](CC(C)C)C(=O)N(C)[C@@H](C(C)C)C(=O)N1C [valspodar]
- inhibition of Pgp-mediated rhodamine transport (Pgp [3]; exogenously added valspodar 3 μg/ml): fully inhibits
